Measurements from patent publication US5965539A, “Inhibitors of prenyl transferases” (Univeristy of Pittsburgh, priority 1996, dated 1999).
Like-named read-outs stand apart in the source and are kept apart here.

What was measured:
H-Ras processing = test: Ras processing assay in H-RasF cells (NIH 3T3 transformed with oncogenic H-Ras-CVLS), immunoblot; assay type: cell-based; details: for IC50: whole cells
Description: (§1) H-RasF cells (45) were seeded on day 0 in 100 mm Dishes (costar) in Dulbecco's modified Eagles medium (GIBCO) and allowed to grow to 40-60% confluency. […] On day 3, cells were washed one time with ice cold PBS and were collected and lysed by incubation for 30-60 min on ice in lysis buffer (41). Lysates were cleared (14,000 rpm, 4° C., 15 min) and supernatants collected. Equal amounts of lysate were separated on a 12.5% SDS-PAGE, transfered to nitrocellulose, and a western blot performed using a anti-Ras antibody (Y13-238, ATCC) or anti-Rap1A antibody (Santa Cruz Biotechnology, Santa Cruz, Calif.). Antibody reactions were visualized using peroxidase-conjugated goat anti-rat IgG for Y13-238 and peroxidase-conjugated goat anti-rabbit IgG for Rap1A and an enhanced chemiluminescence detection system (ECL; Amersham Corp.)
(§2) H-Ras cells (45) and K-Ras4B Cells (32) were kind gifts from Dr. Channing Der and Dr. Adrienne Cox (University of North Carolina, Chapel Hill). Means of obtaining these cell lines will be easily recognized by the skilled practitioner. Cells were seeded on day 0 in 100 mm dishes in Dulbecco's modified Eagles medium supplemented with 10% calf serum and 1% penicillin-streptomycin. […] On day 3, cells were washed and lysed in lysis buffer containing 50 mM HEPES, pH 7.5, 10 mM NaCl, 1% TX-100, 10% glycerol, 5 mM MgCl2, 1 mM EGTA, 25 μg/ml leupeptin, 2 mM PMSF, 2 mM Na3 VO4, 1 mg/ml soybean trypsin inhibitor, 10 μg/ml aprotinin, 6.4 mg/ml Sigma-104® phosphatase substrate. Lysates were cleared (14,000 rpm, 4° C., 15 min) and equal amounts of protein were separated on a 12.5% SDS-PAGE, transferred to nitrocellulose, and immunoblotted using an anti-Ras antibody (Y13-259, ATCC) or an anti-RapIA antibody (SC-65, Santa Cruz Biotechnology, Santa Cruz, Calif.). Antibody reactions were visualized using either peroxidase-conjugated goat anti-rat 1 gG (for Y13-259), or peroxidase-conjugated goat anti-rabbit 1 gG (for Rap1A) and an enhanced chemiluminescence detection (ECL, Amersham Corp.), as described previously (41).

Rap1A processing = Rap1A processing assay in NIH 3T3 cells overexpressing oncogenic H-Ras, immunoblot; assay type: cell-based; details: for IC50: whole cells
Description: as §1, §2

K-Ras4B processing = K-Ras4B processing assay in NIH 3T3 cells overexpressing oncogenic K-Ras4B; assay type: cell-based; details: whole cells
Text: H-Ras cells (45) and K-Ras4B Cells (32) were kind gifts from Dr. Channing Der and Dr. Adrienne Cox (University of North Carolina, Chapel Hill). Means of obtaining these cell lines will be easily recognized by the skilled practitioner.

RasGG processing = details: 5 μM, FIG. 2B
Description: as §1

[1] = test system: endogenous Ras processing; details: 5 μM, pZIPneo and Raf cells
Description: as §1

[2] = test system: oncogenic H-Ras activation of MAPK; test: Oncogenic H-Ras activation of MAP kinase, immunoblot; assay type: cell-based; details: H-RasF cells
Text: (§3) Equal amounts of protein were separated on a 15% SDS-PAGE, transferred to nitrocellulose, and immunoblotted using an anti-MAP kinase antibody (erk2, monoclonal, UB1, Lake Placid, N.Y.). Antibody reactions were visualized using peroxidase-conjugated donkey anti-mouse IgG (Jackson ImmunoResearch Laboratories Inc., West Grove, Pa.) and an enhanced chemiluminescence detection system (ECL, Amersham Corp.)

[3] = test system: oncogenic K-Ras4B activation of MAP kinase; test: Oncogenic K-Ras4B activation of MAP kinase, immunoblot; assay type: cell-based; details: 0-30 μM tested
Text: as §3

[4] = test system: Calu-1 human lung carcinoma; details: 50 mg/kg once daily
Text: Calu-1 (Panel A) and NCI-H810 cells (Panel B) were purchased from ATCC and grown in McCoy's 5A medium in 10% FBS (Fetal Bovine Serum) and RPMI 1640 in 10% FBS, respectively. The cells were harvested, resuspended in PBS and injected s.c. into the right and left flank of 8 week old female nude mice (10^7 cells/flank). Nude mice (Harlan Sprague Dawley, Indianapolis, Ind.) were maintained in accordance with the Institutional Animal Care and Use Committee (IACUC) procedures and guidelines. On day 32 after s.c. implantation of tumors, animals were dosed i.p. with 0.2 ml once daily for 36 days. […] The tumor volumes were determined by measuring the length (l) and the width (w) and calculating the volume (V=(l)×(w)^2 /2). Data are presented as the average volume of eight tumors in each group for each cell line. Statistical significance between control and treated groups were evaluated by using student t test (*P<0.05).
In this model, tumors from two human lung carcinoma cell lines are implanted subcutaneously. One of these (Calu-1) harbors a K-Ras oncogenic mutation and has a deletion of the tumor suppressor gene p53. The other human lung carcinoma ([…]) has no Ras mutations.

[5] = test system: H-RasF transformed NIH 3T3 cells; details: 50 mg/kg once daily
Description: A. Antitumor efficacy was carried out as described in FIG. 3 except that animals were randomly assigned to four groups each of 4 mice each (2 tumors per mouse). […] B. Ras processing was carried out 5 hours after the last treatement on day 17. Tumors were extracted from the animals, tissumized, and lysed in lysis buffer as described in FIG. 1. Lysates (25 μg) were electrophoresed on a 12.5% SDS-PAGE and immunoblotted with anti-Ras antibody Y13-238 as described previously. The blots were then reprobed with anti-Rap1A antibody (Santa Cruze Biotechnologies, Santa Cruz, Calif.).
The tumor sizes at the end of 17 days were 2490 mm^3 for saline, 1793 mm^3 for 10 mg/kg, 1226 mm^3 for 50 mg/kg and 624 mm^3 for 100 mg/kg treated animals. […] Tumors from control animals contained only fully processed Ras which migrates faster in SDS-PAGE gels (FIG. 11B). […] Thus, the extent of tumor growth inhibition correlated with the extent of inhibition of Ras processing.

Ras/Raf complexes = details: 5 μM, H-RasF cells
Description: Cells were seeded on day 0 in 100 mm dishes in 10 ml Dulbecco's Modified Eagles Medium (GIBCO) supplemented with 10% calf serum (Hyclone) and 1% pen/strep (GIBCO). […] On day 3, cells were collected by centrifugation in ice cold PBS. Cell pellets were then resuspended in ice cold hypotonic buffer (10 mM Tris, pH 7.5, 5 mM MgCl2, 1 mM DTT, 1 mM PMSF) and cells were sonicated to break up cell pellet to promote separation of cytosol and membrane. The cell suspension was then centrifuged at 2,000 rpm for 10 min to clear debris after which the supernatant was loaded in ultrocentrifuge tubes and spun for 30 min at 100,000×g to SW Ti55 Rotor to separate membrane and cytosol fractions. The cytosol and membrane fractions were lysed on ice for 60 min in buffer containing 30 mM HEPES, pH 7.5, 1% TX-100, 10% glycerol, 10 mM NaCl, 5 mM MgCl2, 2 mM Na3 VO4, 25 mM NaF, 1 mM EGTA, 10 μM soybean trypsin inhibitor, 25 μg/ml leupeptin, 10 μg/ml aprotinin, 2 mM PMSF). The lysates were clarified by centrifugation. Equal amounts of cytosol and membrane fractions were immunoprecipitated using 50 μl of a 25% Protein-A Sepharose Cl-4B suspension (Sigma) with 1 μf/ml anti-c-Raf-1 (SC133, Santa Cruz Biotechnology, Santa Cruz, Calif.). The samples were tumbled at 4° C. for 60 min and then washed 5 times in 50 mM HEPES, pH 7.5, 100 mM NaCl, 5 mM MgCl2, 0.1% TX-100, 10% glycerol, 20 mM NaF. […]

Ras nucleotide state = details: H-RasF cells
Description: H-RasF cells were seeded and treated as above for Ras/Raf interaction and Ras and Rap1A processing. On day 2, however, cells were labeled overnight with [^32 P] orthophosphate at 100 μCi/mo (Amersham PBS13) in 10 ml DMEM-phosphate supplemented with 10% calf serum, 1 mg/ml BSA and 20 mM HEPES, pH 7.5. On day 3, the medium was removed and cells were washed one time in ice-cold PBS, scraped from the plate with a cell scraper, collected and centrifuged. The cell pellet was resuspended in ice-cold hypotonic buffer listed above and the cytosol and membrane fractions were separated according to the above description for Ra/Raf association. The cytosol and membrane fractions were lysed on ice for 60 min in 50 mM Tris, pH 7.5, 5 mM MgCl2, 1% Triton X-100 (TX-100), 0.5% DOC, 0.05% SDS, 500 mM NaCl, 1 mM EGTA, 10 μg/ml aprotinin, 10 μg/ml soybean trypsin inhibitor, 25 μg/ml leupeptin, 1 mM DTT, 1 mg/ml BSA. Lysates were cleared and equal amounts of protein were immunoprecipitated using anti-Ras antibody (Y13-259) along with 30 μl Protein A-Agarose goat anti-rat IgG complex (Oncogene Science) for 60 min at 4° C. […] Plates were analyzed by autoradiogram.

Raf-1 kinase = details: H-RasF cells
Description: Raf-1 kinase was assayed by determining the ability of Raf to transfer phosphate from [γ-^32 P] ATP to a 19-mer peptide containing an autophosphorylation site. Membrane and cytosol fraction isolation and Raf immunoprecipitates were washed three times with cold HEPES buffer and twice with kinase buffer (50 mM Tris, pH 7.5, 150 mM NaCl, 12 mM MnCl2, 1 mM DTT, 0.2% Tween 20. Immune complex kinase assays were performed by incubating immunoprecipitaes from membrane and cytosol fractions in 96 μl of kinase buffer with 20 μCi of [γ-^32 P]ATP (10 mCi/ml, Amersham) and 2 μl of the Raf-1 substrate peptide (1 mg/ml, Promega) for 30 min at 25° C. The sequence of the Raf-1 substrate peptide is [sequence]. The phosphorylation reaction was terminated by spotting 50 μl aliquots of the assay mixture onto Whatman P81 for 40 min in 0.5% orthophosphoric acid and air dried. The amount of ^32 P incorporated was determined by liquid scintillation counting.

[6] = test system: H-RasGG activation of MAPK; details: 5 μM, FIG. 5B
[7] = test system: oncogenic Raf activation of MAPK; details: 5 μM, FIG. 5B

COC(=O)[C@H](CCSC)NC(=O)c1ccc(NC[C@@H](N)CS)cc1-c1ccccc1 [FTI-277, 4-N-[2(R)-Amino-3-mercaptopropyl]amino-2-phenylbenzoyl methionine methyl ester]
processing of RasF (H-Ras processing; 5 μM, FIG. 2B): completely blocked | concentration at which Ras processing was blocked (H-Ras processing; H-RasF cells): 1 µM | IC50 (H-Ras processing; Table 5, read-out: In Vivo Processing IC50 H-Ras): 0.1 µM | IC50 (H-Ras processing; read-out: H-Ras processing IC50): 0.1 µM | IC50 (Rap1A processing; Table 5, read-out: In Vivo Processing IC50 Rap1A): 50 µM | inhibition of processing of geranylgeranylated Rap1A (Rap1A processing; concentrations as high as 10 μM): did not inhbit processing | IC50 (Rap1A processing; read-out: Rap1A processing IC50): 50 µM | IC50 (K-Ras4B processing; Table 5, read-out: In Vivo Processing IC50 K-Ras): 10 µM | IC50 (K-Ras4B processing; read-out: K-Ras4B processing IC50): 10 µM | processing of RasGG (RasGG processing): not affected | processing of endogenous Ras [1]: blocked | lowest effective concentration, inhibition of oncogenic Ras activation of MAPK [2]: 300 nM | lowest concentration inhibiting K-Ras4B MAP kinase activation [3]: 30 µM | tumor growth of Calu-1 [4]: inhibited the growth of Calu-I cells to the same extent | tumor growth of H-RasF transformed NIH 3T3 cells [5]: inhibited tumor growth | Ras/Raf association in membrane and cytosolic fractions (Ras/Raf complexes): accumulation of Ras/Raf complexes in the cytosolic but not membrane fractions | nucleotide state of non-farnesylated cytosolic Ras (Ras nucleotide state): GTP bound | oncogenic Ras-F induced activation of Raf kinase in the plasma membrane (Raf-1 kinase): suppressed this activation | block of H-RasGG activation of MAPK [6]: able to block H-RasF but not H-RasGG activation of MAPK | block of oncogenic Raf activation of MAPK [7]: not blocked
